One may read the IC50 as the point on the concentration scale where inhibition reaches its midpoint. Read a low IC50 as greater potency.

For the first assay, the target named is T1, human FASN (Homo sapiens, UniProt P49327).
T1 construct: purified from SKBR3 cells using procedures modified from those in Jayakumar et al; endogenous in cells; host or cells: SKBR3 cells (ATCC); endogenous FASN purified in house by ammonium sulfate precipitation and mono Q chromatography
T1 sequence (P49327 whole entry): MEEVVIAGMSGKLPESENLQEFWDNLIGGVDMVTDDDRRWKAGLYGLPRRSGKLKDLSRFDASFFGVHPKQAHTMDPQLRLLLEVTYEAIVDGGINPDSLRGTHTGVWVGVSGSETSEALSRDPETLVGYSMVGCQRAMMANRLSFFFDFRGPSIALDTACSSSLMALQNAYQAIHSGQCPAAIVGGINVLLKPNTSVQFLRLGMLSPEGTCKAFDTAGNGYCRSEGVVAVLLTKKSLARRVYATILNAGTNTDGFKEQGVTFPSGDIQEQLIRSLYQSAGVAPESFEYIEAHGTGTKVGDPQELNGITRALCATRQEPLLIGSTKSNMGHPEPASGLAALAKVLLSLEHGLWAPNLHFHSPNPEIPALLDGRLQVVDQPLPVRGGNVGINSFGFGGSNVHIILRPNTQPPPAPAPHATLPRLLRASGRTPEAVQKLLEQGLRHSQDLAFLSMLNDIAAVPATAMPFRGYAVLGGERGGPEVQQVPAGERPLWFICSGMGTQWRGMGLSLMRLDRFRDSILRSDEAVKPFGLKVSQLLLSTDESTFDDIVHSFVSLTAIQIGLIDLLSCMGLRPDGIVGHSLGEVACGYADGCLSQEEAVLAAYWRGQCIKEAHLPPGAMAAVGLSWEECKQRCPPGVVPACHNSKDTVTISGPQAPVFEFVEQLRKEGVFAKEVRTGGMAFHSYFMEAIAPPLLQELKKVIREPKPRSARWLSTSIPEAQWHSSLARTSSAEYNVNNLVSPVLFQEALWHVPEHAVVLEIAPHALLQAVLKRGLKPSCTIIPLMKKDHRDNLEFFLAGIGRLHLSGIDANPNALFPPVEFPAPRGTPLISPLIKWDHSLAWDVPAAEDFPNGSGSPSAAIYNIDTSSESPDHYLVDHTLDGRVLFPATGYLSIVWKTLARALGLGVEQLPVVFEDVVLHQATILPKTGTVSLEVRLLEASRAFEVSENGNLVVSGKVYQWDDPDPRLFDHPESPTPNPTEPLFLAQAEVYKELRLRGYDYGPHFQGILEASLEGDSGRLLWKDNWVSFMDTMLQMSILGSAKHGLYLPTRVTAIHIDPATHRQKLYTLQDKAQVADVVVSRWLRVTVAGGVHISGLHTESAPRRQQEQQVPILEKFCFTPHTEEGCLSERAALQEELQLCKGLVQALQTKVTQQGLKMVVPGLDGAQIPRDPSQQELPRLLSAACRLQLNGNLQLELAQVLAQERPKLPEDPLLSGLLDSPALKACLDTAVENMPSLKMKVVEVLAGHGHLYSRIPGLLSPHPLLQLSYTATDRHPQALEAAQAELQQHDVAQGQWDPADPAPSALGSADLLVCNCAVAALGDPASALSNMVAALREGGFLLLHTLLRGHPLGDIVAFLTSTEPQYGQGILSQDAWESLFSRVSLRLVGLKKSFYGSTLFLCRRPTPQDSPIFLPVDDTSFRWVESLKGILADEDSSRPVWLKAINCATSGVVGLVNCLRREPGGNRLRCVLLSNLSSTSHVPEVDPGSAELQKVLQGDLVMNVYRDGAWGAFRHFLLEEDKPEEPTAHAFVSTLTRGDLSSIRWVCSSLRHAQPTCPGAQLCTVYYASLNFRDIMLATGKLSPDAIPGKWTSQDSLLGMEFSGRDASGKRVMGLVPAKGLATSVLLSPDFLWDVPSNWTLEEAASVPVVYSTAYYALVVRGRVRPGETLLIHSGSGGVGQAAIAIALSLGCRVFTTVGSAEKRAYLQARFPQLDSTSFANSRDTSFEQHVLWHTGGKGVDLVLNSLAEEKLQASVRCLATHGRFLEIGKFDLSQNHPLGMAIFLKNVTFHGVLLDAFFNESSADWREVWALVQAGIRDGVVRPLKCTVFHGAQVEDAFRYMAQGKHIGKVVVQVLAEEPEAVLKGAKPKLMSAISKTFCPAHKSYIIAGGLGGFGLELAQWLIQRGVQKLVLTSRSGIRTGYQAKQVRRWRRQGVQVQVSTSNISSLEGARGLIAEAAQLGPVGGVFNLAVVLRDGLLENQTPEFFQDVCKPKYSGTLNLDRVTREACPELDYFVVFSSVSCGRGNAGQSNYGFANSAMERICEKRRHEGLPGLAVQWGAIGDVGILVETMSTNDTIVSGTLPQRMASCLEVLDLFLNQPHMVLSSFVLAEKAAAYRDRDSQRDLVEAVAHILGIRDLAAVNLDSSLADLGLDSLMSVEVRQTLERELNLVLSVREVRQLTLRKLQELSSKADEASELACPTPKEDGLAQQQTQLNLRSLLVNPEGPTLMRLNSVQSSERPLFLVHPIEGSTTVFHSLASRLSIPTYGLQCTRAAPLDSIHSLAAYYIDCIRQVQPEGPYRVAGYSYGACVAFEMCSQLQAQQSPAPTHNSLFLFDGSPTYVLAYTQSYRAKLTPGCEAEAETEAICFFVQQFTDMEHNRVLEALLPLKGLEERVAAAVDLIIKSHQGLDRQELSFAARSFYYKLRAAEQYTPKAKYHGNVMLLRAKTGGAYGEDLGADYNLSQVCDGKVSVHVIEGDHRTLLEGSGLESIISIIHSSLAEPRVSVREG
Put plainly: FASN NADPH consumption assay. The settings on record: IC50 class, FASN NADPH Consumption Assay (symbols without asterisk); human FASN purified from SKBR3 cells. The class given is biochemical. Here is the method:
Human FASN protein (SEQ ID NO 1) was purified from SKBR3 cells using procedures modified from those in Jayakumar et al., PNAS (1995) 92:8695-8699. SKBR3 cells were obtained from ATCC and grown in DMEM high glucose medium supplemented with 10% FBS, 1 μg/mL bovine pancreas insulin, 100 U/mL penicillin and 100 μg/mL streptomycin. The confluent cells were trypsinized and washed three times with PBS buffer before frozen in liquid N2 and stored at −80° C. Frozen cells were thawed on ice and re-suspended in lysis buffer (25 mM Tris-HCl, pH 7.0, 15 mM NaCl, 1 mM EDTA, and 1 mM DTT) with protease inhibitors. The cells were lysed by sonication, and the cell debris was removed by centrifugation at 20,000 rpm for 30 min. To the supernatant, neutralized saturated ammonium sulfate solution was added to a final concentration of 35%. The solution was left on ice for 1 hr, and the precipitated proteins were harvested by centrifugation at 20,000 rpm for 30 min. The proteins were re-dissolved in lysis buffer without NaCl and loaded on a mono Q column. Bound proteins were eluted with a linear gradient of NaCl in lysis buffer. Each fraction was analyzed by SDS-PAGE and FASN NADPH consumption assay. The fractions containing FASN were pooled and concentrated to 2-3 mg/mL. Glycerol was added to 20%, and the protein was frozen in liquid N2 and stored at −80° C.
All chemicals were purchased from Sigma (St. Louis, Mo.). The procedures of NADPH consumption assay were similar to those described in Cox et al., PNAS (1983) 80:4233-4237. On a 96-well polypropylene microplate, dilution series (typical concentrations 60 nM-1.0 mM) of inhibitor compounds were prepared in DMSO, of which 4.0 μL each was transferred to a black polystyrene assay microplate and mixed with 36 μL FASN assay buffer (50 mM potassium phosphate, pH 7.0, 1.0 mM EDTA, 0.01% NP-40) plus 5.0 mM fresh DTT. FASN protein (40 μL 150 nM FASN) was added per well, and the microplate was incubated at 37° C. for 30 min. Enzyme activity measurement was initiated by addition of 20 μL 5× substrate mixture to final concentrations of 60 nM FASN, 2.4 nM-40 μM compound, 0.2 mM NADPH, 50 μM butyryl-CoA, 0.5 mM malonyl-CoA in 100 μL assay buffer plus 5.0 mM DTT and 4.0% DMSO. NADPH consumption was monitored kinetically by fluorescence (λEX=340 nm, λEm=460 nm) on an EnVision 2100 multilabel plate reader (Perkin Elmer, Waltham, Mass.). FASN enzyme activity (slope) in the presence of 4% DMSO was used as maximum control, whereas background (minimum control) was measured by omission of malonyl-CoA in the substrate mixture. Inhibition curves were fitted by a logistic function to yield IC50 values: […]
For the compound `N#Cc1c(-c2c(F)cccc2F)nnn1C(=O)N1CCCC2CCCCC21` (stereo not shown), the IC50 lay in the range of 0.2 to 0.5 µM.

The compound `N#Cc1c(-c2c(Cl)cccc2Cl)nnn1C(=O)N1CCCC2CCCCC21` (stereo not shown) displayed a half-maximal inhibitory concentration (IC50) of 0.2 to 0.5 µM.

The compound `N#Cc1c(-c2ccccc2CCc2ccccc2)nnn1C(=O)N1CCCC2CCCCC21` (stereo not shown) had a 50% inhibitory concentration (IC50) of less than 0.2 µM.

Compound `COC(=O)C1CCc2ccccc2N1C(=O)n1nnc(-c2ccccc2Oc2ccccc2)c1C#N` (stereo not shown) returned an IC50 of 0.5 to 1 µM.

In the case of `C[C@@H](NC(=O)c1ccccc1-c1nnn(C(=O)N2CCCC3CCCCC32)c1C#N)c1ccccc1` (stereo partly shown), the 50% inhibitory concentration (IC50) is 0.2 to 0.5 µM.

Take `C[C@H](NC(=O)c1ccccc1-c1nnn(C(=O)N2CCCC3CCCCC32)c1C#N)c1ccccc1` (stereo partly shown): the IC50 is less than 0.2 µM.

`C[C@@H]1[C@@H](NC(=O)c2ccccc2-c2nnn(C(=O)N3CCCC4CCCCC43)c2C#N)C[C@@H]2C[C@H]1C2(C)C` (stereo partly shown): the half-maximal inhibitory concentration (IC50) is 0.5 to 1 µM.

Turning to `C[C@H]1[C@H](NC(=O)c2ccccc2-c2nnn(C(=O)N3CCCC4CCCCC43)c2C#N)C[C@H]2C[C@@H]1C2(C)C` (stereo partly shown), the IC50 is 0.2 to 0.5 µM.

Turning to `CCN(C(=O)n1nnc(C2CCCCC2)c1C#N)c1ccccc1`, the IC50 was 0.2 to 0.5 µM.

Compound `CCN(C(=O)n1nnc(-c2c(F)cccc2F)c1C#N)c1ccccc1` returned an IC50 of less than 0.2 µM.

`CCN(C(=O)n1nnc(-c2c(F)cccc2Cl)c1C#N)c1ccccc1` displayed an IC50 of less than 0.2 µM.

As for `CCN(C(=O)n1nnc(-c2c(Cl)cccc2Cl)c1C#N)c1ccccc1`, the IC50 is less than 0.2 µM.

In turn, `CCN(C(=O)n1nnc(-c2c(F)cccc2Cl)c1C#N)c1ccccc1F` registered an IC50 of less than 0.2 µM.

In turn, `CCN(C(=O)n1nnc(-c2ccccc2Oc2ccccc2)c1C#N)c1ccccc1` had an IC50 of less than 0.2 µM.

In turn, `CC(=O)N1CCC(N(Cc2ccccc2)C(=O)n2nnc(-c3ccccc3Oc3ccccc3)c2C#N)CC1` registered an IC50 greater than 1 µM.

The compound `CC(C)(C)OC(=O)N1CCC(N(Cc2ccccc2)C(=O)n2nnc(-c3ccccc3Oc3ccccc3)c2C#N)CC1` yielded a concentration for half-maximal inhibition (IC50) greater than 1 µM.

`CCOC(=O)c1c(C2CC3C=CC2C3)nnn1C(=O)N1CCCC2CCCCC21` (stereo not shown) showed an IC50 greater than 1 µM.

In the case of `C[C@H]1[C@H](NC(=O)c2c(-c3ccccc3Oc3ccccc3)nnn2C(=O)N2CCCC3CCCCC32)C[C@H]2C[C@@H]1C2(C)C` (stereo partly shown), the IC50 is greater than 1 µM.

The compound `C[C@@H]1[C@@H](NC(=O)c2c(-c3ccccc3Oc3ccccc3)nnn2C(=O)N2CCCC3CCCCC32)C[C@@H]2C[C@H]1C2(C)C` (stereo partly shown) displayed an IC50 greater than 1 µM.

Take `CCOC(=O)c1c(-c2ccccc2Oc2ccccc2)nnn1C(=O)N(CC)c1ccccc1`: the IC50 lay in the range of 0.5 to 1 µM.

`O=C(N1CCCC2CCCCC21)n1nnc2ccccc21` (stereo not shown): the IC50 is greater than 1 µM.

Take `O=C(N1CCCC2CCCCC21)n1nnc2ncccc21` (stereo not shown): the IC50 is greater than 1 µM.

Compound `CCN(C(=O)n1nnc2ncccc21)c1ccccc1` showed an IC50 of 0.5 to 1 µM.

On to `CCN(C(=O)n1nnc2ccccc21)c1ccccc1F`, for which the IC50 was 0.5 to 1 µM.

`CCN(C(=O)n1nnc2ccccc21)c1ccc(C(=O)O)cc1` showed an IC50 greater than 1 µM.

As for `CCN(C(=O)n1nncc1-c1ccccc1)C1CCCCC1`, the IC50 is greater than 1 µM.

The compound `CCN(C(=O)n1nncc1-c1ccccc1Cl)c1ccccc1` came in with an IC50 greater than 1 µM.

`CCN(C(=O)n1nncc1-c1ccccc1Cl)c1ccccc1F` came in with an IC50 greater than 1 µM.

The compound `CCN(C(=O)n1cc(-c2ccccc2)nn1)C1CCCCC1` came in with an IC50 greater than 1 µM.

Regarding `CCN(C(=O)n1cc(-c2ccccc2Cl)nn1)c1ccccc1`, the IC50 was in the range of 0.5 to 1 µM.

In turn, `CCN(C(=O)n1cc(-c2ccccc2Cl)nn1)c1ccccc1F` showed a 50% inhibitory concentration (IC50) greater than 1 µM.

As to `CCOC(=O)c1c(-c2ccccc2Oc2ccccc2)nnn1C(=O)N1CCCC2CCCCC21` (stereo not shown) [ethyl 1-(decahydroquinoline-1-carbonyl)-4-(2-phenoxyphenyl)-1H-1,2,3-triazole-5-carboxylate], the 50% inhibitory concentration (IC50) was 0.5 to 1 µM.

The next assay has as its target T1, human FASN. Put plainly: FASN Scintillation Proximity Flashplate assay. The settings on record: IC50 class, FASN Scintillation Proximity Flashplate Assay (symbols with asterisk); human FASN purified from SKBR3 cells. The class given is biochemical. Here is the method: Human FASN protein (SEQ ID NO 1) was purified from SKBR3 cells using procedures modified from those in Jayakumar et al., PNAS (1995) 92:8695-8699. SKBR3 cells were obtained from ATCC and grown in DMEM high glucose medium supplemented with 10% FBS, 1 μg/mL bovine pancreas insulin, 100 U/mL penicillin and 100 μg/mL streptomycin. The confluent cells were trypsinized and washed three times with PBS buffer before frozen in liquid N2 and stored at −80° C. Frozen cells were thawed on ice and re-suspended in lysis buffer (25 mM Tris-HCl, pH 7.0, 15 mM NaCl, 1 mM EDTA, and 1 mM DTT) with protease inhibitors. The cells were lysed by sonication, and the cell debris was removed by centrifugation at 20,000 rpm for 30 min. […] Each fraction was analyzed by SDS-PAGE and FASN NADPH consumption assay. […]
Acetyl-coenzyme A, malonyl-coenzyme A, NADPH, bovine gamma globulin, and orlistat were purchased from Sigma (St. Louis, Mo.). […] The plates were read in a Wallac 1450 Microbeta Plus liquid scintillation counter (Perkin Elmer, Waltham, Mass.), and counts per minute (CPM) were collected over 2 min. Each inhibitor well CPM was compared to the maximum FASN enzyme activity (Max) CPM and the background (Min) CPM, as measured by omission of FASN enzyme in the background well. % Inhibition values were calculated, and curves were fitted by a four-parameter logistic function to yield IC50 values: […]
On the technique in general: In a scintillation proximity assay essentially only radioactivity close to the scintillant gives light.
`CCN(C(=O)n1nnc(-c2ccccc2CCc2ccccc2)c1C#N)c1ccccc1` came in with a half-inhibitory concentration (IC50) of less than 0.2 µM.

Take `CC(C)N(C(=O)n1nnc(-c2c(F)cccc2F)c1C#N)c1cccc(C(=O)O)c1` [3-(5-cyano-4-(2,6-difluorophenyl)-N-isopropyl-1H-1,2,3-triazole-1-carboxamido)benzoic acid]: the IC50 is less than 0.2 µM.

The record behind these values is patent US8450350B2, “Triazoles as inhibitors of fatty acid synthase” (Infinity Pharmaceuticals, Inc., priority 2010, dated 2013).
